Measured values taken from patent US11489184B2, “Electrolyte including mixture of active material and precursor thereof” (Foundation for Research and Business, Seoul National …, priority 2020, dated 2022).
≈ marks a conversion by molar mass, not a printed value.

Key:
Type in all cases: physicochemical
[1] = Half-cell cyclic voltammetry, kinetic parameters of NQ derivatives; details: 0.01 M in 1 M KOH; for redox potential difference (average difference of anodic and cathodic redox potentials, ΔEp,avg): glassy carbon electrode, scan rate 10 to 100 mV·s^−1
Experimental: To observe electrochemical performance of active species, various half-cell tests were performed as follows by using a computer connected potentiostat (SP-240, BioLogic). Ag/AgCl (soaked in 3.0 M NaCl) and Pt wire were used as a reference electrode and a counter electrode, respectively. […] To this end, kinetic parameters of NQ derivatives were measured and compared. To calculate electrochemical properties of NQ derivatives, the CV curves were used. […] A value of D was measured by a Randles-Sevick's equation.

[2] = Solubility analysis of NQ derivatives in KOH by UV-vis spectroscopy; details: 1 M KOH solution, aqueous buffer, thermodynamic from solid, stirred for 24 hours, upper part measured by UV-vis, substance alone
Experimental: Excessive amounts of solutions of NQ derivatives were prepared. […] When a further period of time elapsed after stirring was stopped, each solution was divided into two parts (upper and lower parts). 400 microliters (L) of the upper part of the solution was collected and observed by a UV-vis spectrometer. An absorbance was measured to determine concentrations of NQ derivatives.
As a control group, a solution with a known concentration of Lawsone was prepared, and UV-vis spectroscopy of the solution was measured. When absorbance peaks of the control group and a sample of NQ derivatives were compared, concentrations of the samples were calibrated and calculated.

[3] = Analysis of reaction of NQ-S to NQ-OH in KOH (cyclic voltammetry and UV-vis spectroscopy); details: 0.01 M in 1 M KOH, CV; for redox potential: NQ-S right after dissolution
Experimental: Initially, 0.01 M NQ-S was dissolved in 1 M KOH and then the NQ-S solution was stayed for few hours. Changes in a chemical structure of the NQ-S solution were observed using cyclic voltammetry and UV-vis spectroscopy.
For the UV-vis spectroscopy, the following three samples were prepared: (i) NQ-S that is just dissolved in KOH (sample 1); (ii) NQ-S dissolved in KOH for 6 hours (sample 2); and (iii) pristine Lawsone (sample 3). In FIG. 2B, a peak observed at 455 nm corresponds to a peak for NQ-OH, and the peak was clearly observed in sample 2.

[4] = Analysis of ratio of Lawsone and NQ-S (CV curves); details: 0.1 M NQ-S dissolved in 1 M KOH (one third transformed)
Experimental: Samples of Lawsone and NQ-S having different ratios were prepared, and a resistance and a solubility of samples were measured electrochemically (by cyclic voltammetry (CV) and electrochemical impedance spectroscopy (EIS)) and optically (by UV-vis spectroscopy).
[…]; (iv) only Lawsone (0.3 M Lawsone); and (v) only NQ-S (0.3 M NQ-S).

O=C1C=C(O)C(=O)c2ccccc21 [Lawsone, 2-hydroxy-1,4-naphthoquinone, reference compound]
diffusion coefficient D ([1]; CV, Randles-Sevick's equation): 1.75·10^−6 cm^2·s^−1
redox potential difference (average difference of anodic and cathodic redox potentials, ΔEp,avg) [1]: 0.077 V
solubility at 24 h [2]: 420 mM (≈ 73.1 mg/mL)
redox potential [3]: −0.55 V vs Ag/AgCl

O=C1C=C(S(=O)(=O)[O-])c2ccccc2C1=O.[Na+] [NQ-S, 1,2-naphthoquinone-4-sulfonic acid sodium salt]
redox potential difference (average difference of anodic and cathodic redox potentials, ΔEp,avg) [1]: 0.077 V
transformation of NQ-S into NQ-OH in KOH ([3]; staying time 6 hours): completely transformed into NQ-OH
redox potential [3]: −0.1 V vs Ag/AgCl
desirable NQ-OH formed by transformation of NQ-S [4]: 0.033 M
